Test results taken from PubChem BioAssay (NCI).
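Exposure lasted 48 hours, with cells grown in 96-well plates and compounds tested at five concentrations. GI50: concentration for 50% inhibition of growth. TGI marks complete inhibition of growth.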

Tests used:
Assay in all cases: NCI anticancer screen, dose series, 48 h
A549 NSCLC = system: A549 NSCLC
ACHN renal = system: ACHN renal
DU-145 prostate = system: DU-145 prostate
HCT-15 colon = system: HCT-15 colon
HT29 colon = system: HT29 colon
MALME-3M melanoma = system: MALME-3M melanoma
MCF7 breast = system: MCF7 breast
MDA-MB-435 = system: MDA-MB-435
MOLT-4 leukemia = system: MOLT-4 leukemia
NCI-H460 lung = system: NCI-H460 lung
OVCAR-8 ovarian = system: OVCAR-8 ovarian
RPMI-8226 leukemia = system: RPMI-8226 leukemia
SF-539 CNS = system: SF-539 CNS
SN12C renal = system: SN12C renal
U251 CNS = system: U251 CNS
UO-31 renal = system: UO-31 renal

Structure (SMILES) | TGI (A549 NSCLC) [µM] | TGI (ACHN renal) [µM] | TGI (DU-145 prostate) [µM] | TGI (HCT-15 colon) [µM] | TGI (HT29 colon) [µM] | TGI (MALME-3M melanoma) [µM] | TGI (MCF7 breast) [µM] | TGI (MDA-MB-435) [µM] | TGI (MOLT-4 leukemia) [µM] | TGI (NCI-H460 lung) [µM] | TGI (OVCAR-8 ovarian) [µM] | TGI (RPMI-8226 leukemia) [µM] | TGI (SF-539 CNS) [µM] | TGI (SN12C renal) [µM] | TGI (U251 CNS) [µM] | TGI (UO-31 renal) [µM] | GI50 (MOLT-4 leukemia) [µM] | GI50 (RPMI-8226 leukemia) [µM] | GI50 (SN12C renal) [µM] | GI50 (UO-31 renal) [µM]
COc1ccc2oc(=N)c(C(=O)Nc3ccccc3)cc2c1 | > 100 | > 100 | > 100 | > 100 | > 100 | 53.2 | 33.2 | 32.3 | > 100 | > 100 | 46 | 83 | 51.6 | > 100 | 55.1 | > 100 |  |  |  | 
C/C1=C\[C@H](C)C[C@H](C)OC(=O)[C@H](C)NC(=O)[C@@H](Cc2ccc(O)c(Br)c2)N(C)C(=O)[C@H](C)NC(=O)[C@@H](C)C1 | > 25 | 1.04 | > 25 | > 25 | > 3.13 | 2.32 | > 25 | > 25 | > 19.5 | > 19.5 | > 7.69 | 0.604 | 0.117 | > 25 | > 7.76 | 0.152 |  |  |  | 
C=CC1(C)CC(=O)C2(O)C(C)(O1)C(OC(C)=O)C(O)C1C(C)(C)CCC(O)C12C (configuration not stated) | > 150 |  |  | > 150 | > 150 | > 150 | > 115 |  | > 150 | > 150 | > 150 | 120 | > 150 | > 102 | > 94.6 | > 137 | > 91.2 | > 57.2 | > 49 | > 72.5
COc1ccc(N2C(=O)C3c4[nH]c5cc(C)ccc5c4C4CCC(C(C)(C)C)CC4C3C2=O)cc1 (configuration not stated) | > 10 | > 10 | > 10 | > 10 | > 10 | > 10 | > 10 | > 10 | > 10 | > 10 | > 10 | > 10 | > 10 | > 10 | > 10 | > 10 |  |  |  | 
COC1OC2COC(c3ccccc3)OC2C(O)C1OC(=S)c1ccccc1 (configuration not stated) | > 100 | 67 | > 100 | > 100 | 47.9 | 71.6 | > 100 | 4.37 | > 100 | > 100 | > 100 | 36.5 | 87.1 | 48.4 | 12.9 | > 100 |  |  |  | 
CC1(C)CCc2c(ccc(C(=O)/C=C/c3ccc(O)cc3)c2O)O1 | 25.8 | 20.5 | 18.6 | 20.5 | 23.9 | 16.3 | 29.4 | 19.9 | 69.1 | 22.2 | 22 | 20.8 | 22 | 20.7 | 20.1 | 25.5 |  |  |  | 
OC(C#CCN1CCCC1)(c1ccccc1)c1ccccc1Cl (configuration not stated) | > 100 | 71.3 | > 100 | > 100 | 30.1 |  | 32.9 | 51.5 | 91.2 | 41.5 | > 100 | > 100 | 52.4 | > 100 | 35.2 | > 100 |  |  |  | 
